Experimental data published in ChEMBL document CHEMBL3588800, “Novel Bioactive Hybrid Compound Dual Targeting Estrogen Receptor and Histone Deacetylase for the Treatment of Breast Cancer” (J Med Chem, 2015).

How the values were obtained:
Estrogen receptor beta [1] = biological target: T1, Estrogen receptor beta (Homo sapiens, UniProt Q92731); test: Antagonist activity at ER-beta (unknown origin) transfected in HEK293T cells assessed as inhibition of transcriptional activity after 24 hrs by luciferase reporter gene assay relative to 17-beta estradiol; assay type: cell-based; conditions: HEK-293T
Estrogen receptor beta [2] = biological target: T1, Estrogen receptor beta; test: Agonist activity at ER-beta (unknown origin) transfected in HEK293T cells assessed as stimulation of transcriptional activity after 24 hrs by luciferase reporter gene assay relative to 17-beta estradiol; assay type: cell-based; conditions: HEK-293T
[3] = biological target: T2, Estrogen receptor (Homo sapiens) (UniProt P03372); test: Antagonist activity at ER-alpha (unknown origin) transfected in HEK293T cells assessed as inhibition of transcriptional activity after 24 hrs by luciferase reporter gene assay relative to 17-beta estradiol; assay type: cell-based; conditions: HEK-293T
T2 sequence (whole entry): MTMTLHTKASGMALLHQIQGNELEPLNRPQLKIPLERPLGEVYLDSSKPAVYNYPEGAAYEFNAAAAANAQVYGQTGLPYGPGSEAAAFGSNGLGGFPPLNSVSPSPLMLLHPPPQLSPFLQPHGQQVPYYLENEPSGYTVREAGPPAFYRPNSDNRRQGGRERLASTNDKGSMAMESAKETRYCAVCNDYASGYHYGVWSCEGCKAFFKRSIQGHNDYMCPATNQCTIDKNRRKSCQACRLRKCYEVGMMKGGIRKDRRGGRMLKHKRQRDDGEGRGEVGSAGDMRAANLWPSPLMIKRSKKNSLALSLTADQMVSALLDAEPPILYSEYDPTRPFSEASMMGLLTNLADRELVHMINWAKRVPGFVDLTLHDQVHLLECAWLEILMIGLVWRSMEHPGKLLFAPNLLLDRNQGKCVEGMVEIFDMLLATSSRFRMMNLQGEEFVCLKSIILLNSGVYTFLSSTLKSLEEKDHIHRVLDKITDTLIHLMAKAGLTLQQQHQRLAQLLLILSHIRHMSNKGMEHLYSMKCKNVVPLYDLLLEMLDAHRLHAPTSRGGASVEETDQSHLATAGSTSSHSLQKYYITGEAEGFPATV

MCF7 = test: cells; assay type: functional, cell-based; conditions: Homo sapiens, MCF7, 72 h
DU-145 = test: cells; assay type: functional, cell-based; conditions: Homo sapiens, DU-145, 72 h
Estrogen receptor beta [4] = biological target: T1, Estrogen receptor beta; test: Agonist activity at ER-beta (unknown origin) transfected in HEK293T cells assessed as stimulation of transcriptional activity after 24 hrs by luciferase reporter gene assay; assay type: cell-based, HEK-293T
Estrogen receptor [5] = biological target: T3, Estrogen receptor (Homo sapiens, UniProt P03372); test: Binding affinity to human ER-alpha ligand binding domain after 2 hrs by competitive fluorometric binding assay
T3 sequence (P03372 whole entry): T2 sequence (whole entry)

Estrogen receptor beta [6] = biological target: T1, Estrogen receptor beta; test: Binding affinity to human ER-beta ligand binding domain after 2 hrs by competitive fluorometric binding assay
Vero = test: cells; assay type: ADME, cell-based; conditions: Chlorocebus sabaeus, 72 h
[7] = biological target: T2, Estrogen receptor (Homo sapiens); test: Agonist activity at ER-alpha (unknown origin) transfected in HEK293T cells assessed as stimulation of transcriptional activity after 24 hrs by luciferase reporter gene assay relative to 17-beta estradiol; assay type: cell-based; conditions: HEK-293T
Estrogen receptor [8] = biological target: T3, Estrogen receptor; test: Antagonist activity at ER-alpha (unknown origin) transfected in HEK293T cells assessed as inhibition of transcriptional activity after 24 hrs by luciferase reporter gene assay; assay type: cell-based, HEK-293T
Histone deacetylase 1 = Histone deacetylase 1 (Homo sapiens, UniProt Q13547); test: Inhibition of human recombinant HDAC1 after 15 mins by fluorogenic assay
[9] = biological target: T4, Protein deacetylase HDAC6 (Homo sapiens, UniProt Q9UBN7); test: Inhibition of human recombinant HDAC6 after 15 mins by fluorogenic assay
T4 sequence (Q9UBN7 whole entry): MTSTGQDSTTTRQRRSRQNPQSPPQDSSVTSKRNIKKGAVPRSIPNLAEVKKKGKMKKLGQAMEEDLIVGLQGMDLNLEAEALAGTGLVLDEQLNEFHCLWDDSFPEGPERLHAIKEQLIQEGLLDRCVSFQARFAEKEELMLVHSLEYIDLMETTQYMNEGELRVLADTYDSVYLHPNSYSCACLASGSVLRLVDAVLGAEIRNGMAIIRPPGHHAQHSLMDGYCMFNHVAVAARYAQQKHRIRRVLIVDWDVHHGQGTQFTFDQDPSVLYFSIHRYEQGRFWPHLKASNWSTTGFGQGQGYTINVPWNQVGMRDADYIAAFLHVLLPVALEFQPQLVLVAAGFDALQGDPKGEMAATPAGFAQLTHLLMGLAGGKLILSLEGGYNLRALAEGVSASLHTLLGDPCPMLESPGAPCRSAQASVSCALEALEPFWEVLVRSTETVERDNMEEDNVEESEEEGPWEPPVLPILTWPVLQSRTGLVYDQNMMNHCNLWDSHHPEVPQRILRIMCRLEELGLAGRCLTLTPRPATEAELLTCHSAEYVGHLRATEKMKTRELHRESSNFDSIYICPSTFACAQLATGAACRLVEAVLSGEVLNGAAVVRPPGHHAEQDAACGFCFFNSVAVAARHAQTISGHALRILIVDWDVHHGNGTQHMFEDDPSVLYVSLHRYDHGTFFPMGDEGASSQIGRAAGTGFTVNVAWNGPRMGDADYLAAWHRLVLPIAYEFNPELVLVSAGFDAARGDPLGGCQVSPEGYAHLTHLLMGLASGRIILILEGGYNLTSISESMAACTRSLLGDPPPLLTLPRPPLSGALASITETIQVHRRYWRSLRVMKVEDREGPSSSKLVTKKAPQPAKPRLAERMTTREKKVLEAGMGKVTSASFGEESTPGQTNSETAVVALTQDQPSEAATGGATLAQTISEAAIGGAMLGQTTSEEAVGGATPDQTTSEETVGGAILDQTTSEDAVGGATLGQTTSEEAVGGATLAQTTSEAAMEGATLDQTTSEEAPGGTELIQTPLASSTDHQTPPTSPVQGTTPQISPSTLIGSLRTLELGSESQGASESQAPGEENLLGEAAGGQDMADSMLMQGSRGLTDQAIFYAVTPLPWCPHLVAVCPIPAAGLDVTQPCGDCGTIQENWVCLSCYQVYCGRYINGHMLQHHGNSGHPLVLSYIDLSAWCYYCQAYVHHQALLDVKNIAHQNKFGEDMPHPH

Sequence of Histone deacetylase 1 (Q13547 whole entry): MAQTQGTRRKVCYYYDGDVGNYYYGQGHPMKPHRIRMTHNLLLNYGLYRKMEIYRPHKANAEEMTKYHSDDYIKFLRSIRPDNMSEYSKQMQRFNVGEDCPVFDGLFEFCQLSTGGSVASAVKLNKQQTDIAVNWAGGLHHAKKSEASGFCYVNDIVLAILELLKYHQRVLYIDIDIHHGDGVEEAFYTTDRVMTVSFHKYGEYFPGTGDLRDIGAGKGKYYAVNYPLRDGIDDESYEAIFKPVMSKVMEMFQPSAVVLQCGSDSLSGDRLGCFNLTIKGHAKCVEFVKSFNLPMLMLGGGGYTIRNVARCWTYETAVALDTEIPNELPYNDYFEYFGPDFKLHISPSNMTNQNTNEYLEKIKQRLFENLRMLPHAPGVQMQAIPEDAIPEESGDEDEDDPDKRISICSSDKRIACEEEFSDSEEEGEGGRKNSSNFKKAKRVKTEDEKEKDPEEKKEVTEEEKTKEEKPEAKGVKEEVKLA
T1 sequence (Q92731 whole entry): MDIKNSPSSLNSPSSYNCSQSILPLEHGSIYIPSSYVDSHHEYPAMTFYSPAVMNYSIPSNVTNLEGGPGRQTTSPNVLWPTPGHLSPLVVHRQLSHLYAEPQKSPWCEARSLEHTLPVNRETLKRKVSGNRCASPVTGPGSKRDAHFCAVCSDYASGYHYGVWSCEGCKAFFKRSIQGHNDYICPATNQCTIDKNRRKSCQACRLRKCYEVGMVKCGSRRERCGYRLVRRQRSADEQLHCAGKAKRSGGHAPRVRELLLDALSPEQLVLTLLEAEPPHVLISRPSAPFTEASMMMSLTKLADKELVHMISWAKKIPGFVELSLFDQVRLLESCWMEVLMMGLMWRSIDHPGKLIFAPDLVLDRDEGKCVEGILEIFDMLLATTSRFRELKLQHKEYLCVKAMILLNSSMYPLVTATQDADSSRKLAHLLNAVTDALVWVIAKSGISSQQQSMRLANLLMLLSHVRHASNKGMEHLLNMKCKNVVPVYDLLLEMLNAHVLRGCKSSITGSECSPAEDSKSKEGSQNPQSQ

| Compound | Efficacy (Estrogen receptor beta [1]) [%] | Efficacy (Estrogen receptor beta [2]) [%] | Efficacy [3] [%] | IC50 (MCF7) [µM] | IC50 (DU-145) [µM] | EC50 (Estrogen receptor beta [4]) [µM] | Ki (Estrogen receptor [5]) [µM] | Ki (Estrogen receptor beta [6]) [µM] | Efficacy [7] [%] | IC50 (Estrogen receptor [8]) [µM] | IC50 (Histone deacetylase 1) | IC50 [9] | IC50 ([9]; read-out: IC50) [µM] | IC50 (Histone deacetylase 1; read-out: IC50) [µM] | IC50 (Vero) [µM] |
| --- | --- | --- | --- | --- | --- | --- | --- | --- | --- | --- | --- | --- | --- | --- | --- |
| O=C(CCCCCCC(=O)Nc1ccc(C2=C(c3ccc(O)cc3)C3CC(S(=O)(=O)Oc4ccc(F)cc4)C2O3)cc1)NO (racemic) | 86 | 49 | 135 | 23.4 | 47.3 | 0.002 | > 5 | 3.4 |  |  |  |  |  |  | > 100 |
| O=C(O)CCCCCCC(=O)Nc1ccc(C2=C(c3ccc(O)cc3)C3CC(S(=O)(=O)Oc4ccccc4C(F)(F)F)C2O3)cc1 (racemic) | 102 | 10 | 37 | 26.1 | > 100 |  | 3.87 |  | 9 | 0.64 |  |  |  |  | > 100 |
| O=C(O)CCCCCCC(=O)Nc1ccc(C2=C(c3ccc(O)cc3)C3CC(S(=O)(=O)Oc4ccc(C(F)(F)F)cc4)C2O3)cc1 (racemic) | 136 | -12 | 10 | 24 | 77 |  |  |  | -51 | 0.79 | Not Active |  | 0.648 |  | > 100 |
| O=C(CCCCCCC(=O)Nc1ccc(C2=C(c3ccc(O)cc3)C3CC(S(=O)(=O)Oc4ccccc4)C2O3)cc1)NO (racemic) | 92 | 38 | 77 | 30.1 | 37.7 | 0.002 | > 5 |  | 20 |  |  |  |  |  | > 100 |
| COc1ccccc1OS(=O)(=O)C1CC2OC1C(c1ccc(NC(=O)CCCCCCC(=O)NO)cc1)=C2c1ccc(O)cc1 (racemic) | 74 | 53 | 164 | 25.8 | 44.7 | 0.023 | > 5 |  | 9 |  |  |  |  |  | > 100 |
| Cc1ccccc1OS(=O)(=O)C1CC2OC1C(c1ccc(NC(=O)CCCCCCC(=O)NO)cc1)=C2c1ccc(O)cc1 (racemic) | 94 | 27 | 126 | 24.1 | 30.7 | 0.203 | > 5 | 2.12 | -20 |  |  |  |  |  | > 100 |
| O=C(O)CCCCCCC(=O)Nc1cccc(OS(=O)(=O)C2CC3OC2C(c2ccc(O)cc2)=C3c2ccc(O)cc2)c1 (stereo not given) | 102 | 47 | 122 | > 100 | > 100 | 2.1 |  |  | 51 |  |  |  |  |  | > 100 |
| O=C(CCCCCCC(=O)Nc1ccc(C2=C(c3ccc(O)cc3)C3CC(S(=O)(=O)Oc4cccc5ccccc45)C2O3)cc1)NO (racemic) | 94 | 36 | 88 | 13.4 | 8.57 |  | > 5 |  | -22 |  | Not Active |  | 0.03 |  | > 100 |
| O=S(=O)(Oc1ccccc1)[C@H]1C[C@H]2O[C@@H]1C(c1ccc(O)cc1)=C2c1ccc(O)cc1 (relative stereo) |  |  |  | 20.9 | > 100 |  |  |  |  |  | Not Active | Not Active |  |  | > 100 |
| Cc1ccc(OS(=O)(=O)C2CC3OC2C(c2ccc(NC(=O)CCCCCCC(=O)NO)cc2)=C3c2ccc(O)cc2)cc1 (racemic) | 95 | 52 | 116 | 40.4 | 42.9 | 0.038 | > 5 | > 5 | -28 |  |  |  |  |  | > 100 |

More lines, main results first:

| Efficacy (Estrogen receptor beta [1]) [%] | Efficacy (Estrogen receptor beta [2]) [%] | Efficacy [3] [%] | IC50 (MCF7) [µM] | IC50 (DU-145) [µM] | EC50 (Estrogen receptor beta [4]) [µM] | Ki (Estrogen receptor [5]) [µM] | Ki (Estrogen receptor beta [6]) [µM] | Efficacy [7] [%] | IC50 (Estrogen receptor [8]) [µM] | IC50 (Histone deacetylase 1) | IC50 [9] | IC50 ([9]; read-out: IC50) [µM] | IC50 (Histone deacetylase 1; read-out: IC50) [µM] | Compound | IC50 (Vero) [µM] |
| --- | --- | --- | --- | --- | --- | --- | --- | --- | --- | --- | --- | --- | --- | --- | --- |
| 15 | -13 | 14 | 4.7 | 48.6 |  |  |  | 5 |  | Not Active | Not Active |  |  | O=C(O)CCCCCCC(=O)Nc1ccc(C2=C(c3ccc(O)cc3)C3CC(S(=O)(=O)Oc4cccc5ccccc45)C2O3)cc1 (stereo not given) |  |
| 87 | 37 | 24 | 27.9 | 27.7 |  |  |  | 12 | 0.14 |  |  |  |  | O=C(O)CCCCCCC(=O)Nc1ccc(C2=C(c3ccc(O)cc3)C3CC(S(=O)(=O)Oc4ccccc4O)C2O3)cc1 (racemic) | > 100 |
| 111 | 8 | 36 | 60.5 | 80.8 | 0.52 |  | 0.0873 | -6 | 1.08 |  |  |  |  | Cc1ccc(OS(=O)(=O)C2CC3OC2C(c2ccc(NC(=O)CCCCCCC(=O)O)cc2)=C3c2ccc(O)cc2)cc1 (racemic) | > 100 |
| 137 | 5 | 40 | 15.3 | 38.6 |  |  |  | 27 | 116 | Not Active |  | 4.17 |  | COc1ccc(OS(=O)(=O)C2CC3OC2C(c2ccc(NC(=O)CCCCCCC(=O)O)cc2)=C3c2ccc(O)cc2)cc1 (racemic) | > 100 |
| 94 | 19 | 45 | 18.9 | 58.3 | 0.53 |  |  | -21 | 0.92 |  |  | 8.11 | 0.282 | O=C(O)CCCCCCC(=O)Nc1ccc(C2=C(c3ccc(O)cc3)C3CC(S(=O)(=O)Oc4ccc5ccccc5c4)C2O3)cc1 (stereo not given) | > 100 |
| 97 | 36 | 36 | 66.4 | > 100 | 0.93 | 0.112 | 0.654 | -13 | 1.21 |  |  |  |  | O=C(O)CCCCCCC(=O)Nc1ccc(C2=C(c3ccc(O)cc3)C3CC(S(=O)(=O)Oc4ccccc4)C2O3)cc1 (racemic) | > 100 |
| 87 | -11 | 43 | 3.8 | 52.4 |  |  |  | -28 |  |  | Not Active |  | 2.98 | Cc1cccc(OS(=O)(=O)C2CC3OC2C(c2ccc(NC(=O)CCCCCCC(=O)O)cc2)=C3c2ccc(O)cc2)c1 (racemic) |  |
